What was measured:
[1] = molecular target: T1, AR (Homo sapiens, UniProt P10275); assay: AR activation (max fold activation); type: cell-based; conditions: Table 4
T1 sequence (P10275 1-920): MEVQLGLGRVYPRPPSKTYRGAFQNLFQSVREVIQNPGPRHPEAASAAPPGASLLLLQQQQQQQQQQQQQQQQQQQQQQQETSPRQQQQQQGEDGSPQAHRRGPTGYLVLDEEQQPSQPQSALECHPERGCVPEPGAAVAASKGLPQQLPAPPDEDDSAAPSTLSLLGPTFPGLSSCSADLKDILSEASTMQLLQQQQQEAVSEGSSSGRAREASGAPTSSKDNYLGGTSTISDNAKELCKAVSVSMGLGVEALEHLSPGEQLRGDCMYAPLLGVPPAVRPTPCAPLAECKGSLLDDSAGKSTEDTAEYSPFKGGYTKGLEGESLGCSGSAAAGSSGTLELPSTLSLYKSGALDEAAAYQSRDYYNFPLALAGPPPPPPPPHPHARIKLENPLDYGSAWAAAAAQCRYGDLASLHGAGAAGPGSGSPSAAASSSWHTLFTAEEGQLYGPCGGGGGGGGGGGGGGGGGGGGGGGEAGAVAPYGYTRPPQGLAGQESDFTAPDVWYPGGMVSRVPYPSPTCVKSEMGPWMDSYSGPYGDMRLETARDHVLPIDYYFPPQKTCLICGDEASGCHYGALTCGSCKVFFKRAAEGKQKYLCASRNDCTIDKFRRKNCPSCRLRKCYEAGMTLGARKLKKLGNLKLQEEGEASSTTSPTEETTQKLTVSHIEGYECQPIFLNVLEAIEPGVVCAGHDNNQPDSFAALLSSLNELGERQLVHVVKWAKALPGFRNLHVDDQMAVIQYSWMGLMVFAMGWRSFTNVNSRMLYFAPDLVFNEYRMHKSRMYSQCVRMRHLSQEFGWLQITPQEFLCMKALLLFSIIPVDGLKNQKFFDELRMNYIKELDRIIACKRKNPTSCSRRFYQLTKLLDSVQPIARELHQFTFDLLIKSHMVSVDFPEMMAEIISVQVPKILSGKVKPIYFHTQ

[2] = test system: NF-κB; assay: NF-κB repression luciferase assay in A549 cells; type: cell-based, human; conditions: Table 5, TNF-α-stimulated A549 cells
Excerpt: Plasmids for GR (human, pSG5 backbone), AP1-Luc (synthetic AP1 response element upstream of a firefly luciferase gene), TAT3-Luc (three copies of the tyrosine aminotransferase glucocorticoid response element upstream of a firefly luciferase gene), β-galactosidase (used as a transfection control), as well as two stable transfected cells lines: an A549 (human, lung carcinoma) cell line stably transfected with a κB response element upstream of a firefly luciferase gene, (R. M. Nissen et al., Genes Dev., 14(18):2314-29, (2000)) and a U2OS (human, osteosarcoma) stably transfected with rat GR (I. Rogatsky, et al., Mol. Cell. Biol., 1997, 17, 3181-3193) were a gift of Professor Keith Yamamoto (Department of Biochemistry, University of California, San Francisco).
For NF-κB repression assays, A549 cells stably transfected with a luciferase reporter were grown under the same conditions as CV-1 cells. 50,000 cells/well were plated into 96 well plates and incubated for 12 h at 37° C. Either TNF-α alone or mixed with various hormone dilutions in media were then added to the cells, which were then incubated for 8 hours. Procedures for lysis and luciferase assay were performed as previously described. Protein content was used as a control in this case and the recommended procedures using the BCA Protein Assay Kit (Roche) were followed.

AR max fold activation [1]	EC50 ([2]; Homo sapiens, read-out: Repression NF-KB pot (EC50))	SMILES	Repression NF-KB % max repression [2]
4.6 ± 1.6		Cc1cc(O)cc(C)c1C(O)C1CCCC2=Cc3c(cnn3-c3ccc(F)cc3)CC21C (stereo not drawn) [Compound 227, 4-{[1-(4-Fluoro-phenyl)-4a-methyl-4,4a,5,6,7,8-hexahydro-1H-benzo[f]indazol-5-yl]-hydroxy-methyl}-3,5-dimethyl-phenol]	
	0.0264 µM	CC12Cc3cnn(-c4ccc(F)cc4)c3C=C1CCCC2C(O)c1cccc2[nH]ccc12 (stereo not drawn) [Compound 237, [1-(4-Fluoro-phenyl)-4a-methyl-4,4a,5,6,7,8-hexahydro-1H-benzo[f]indazol-5-yl]-(1H-indol-4-yl)-methanol]	74%

— patent US7947726B2, “Non-steroidal ligands for the glucocorticoid receptor, and compositions thereof” (The Regents of the University of California, priority 2002, dated 2011)
